In the supplement of paper PMC5579334:
± gives the standard deviation of the averaged measurements.

Assays:
[1] = system: HSC2 (primary human Schwann cells); experiment: % inhibition of CellTiter-Glo viability at highest tested concentration (72 h), relative to DMSO and benzethonium chloride controls; higher = more inhibition
Procedure, shortened: (§1)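 MPNST cell lines and primary human Schwann cells (750–1000 cells per well) went into 384-well plates preprinted with each compound at five concentrations in 10-fold steps. Plates were incubated 72 h at 37 °C, 5% CO2. Viability was read as CellTiter-Glo ATP luminescence, scaled between vehicle and positive-control wells, with duplicates averaged where present. Percent inhibition is at the top concentration; drug sensitivity score and relative IC50 (censored at top concentration) come from four-parameter logistic fits.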

S1507-2 [2] = experiment: as above
Procedure, shortened: as §1

[3] = system: HSC1 (primary human Schwann cells); experiment: as above
Procedure, shortened: as §1

HS-PSS [4] = experiment: as above
Procedure, shortened: as §1

HS-Sch-2 [5] = experiment: as above
Procedure, shortened: as §1

ST8814 [6] = experiment: as above
Procedure, shortened: as §1

YST-1 [7] = experiment: as above
Procedure, shortened: as §1

STS26T [8] = experiment: as above
Procedure, shortened: as §1

S462 [9] = experiment: as above
Procedure, shortened: as §1

[10] = system: HSC2 (primary human Schwann cells); experiment: drug sensitivity score (DSS, CellTox-Green cytotoxicity, 72 h) (DSS (dimensionless)); higher = more cytotoxic; extreme values may be limits of the assay
Procedure, shortened: (§2)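 MPNST cell lines and primary human Schwann cells were incubated 72 h at 37 °C in 384-well plates holding five 10-fold compound dilutions. CellTox-Green was added before seeding at a final 1:1000 dilution and reported fluorescence from DNA released by disrupted cells. Signals were scaled to vehicle and positive-control wells, and cultures failing plate quality control were dropped. Drug sensitivity score and relative IC50 come from four-parameter logistic fits, with IC50 censored at the top concentration.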

S1507-2 [11] = experiment: as above
Procedure, shortened: as §2

[12] = system: HSC1 (primary human Schwann cells); experiment: as above
Procedure, shortened: as §2

HS-PSS [13] = experiment: as above
Procedure, shortened: as §2

ST8814 [14] = experiment: as above
Procedure, shortened: as §2

STS26T [15] = experiment: as above
Procedure, shortened: as §2

[16] = system: HSC2 (primary human Schwann cells); experiment: drug sensitivity score (DSS, CellTiter-Glo viability, 72 h) (DSS (dimensionless)); higher = more sensitive; extreme values may be limits of the assay
Procedure, shortened: as §1

S1507-2 [17] = experiment: as above
Procedure, shortened: as §1

[18] = system: HSC1 (primary human Schwann cells); experiment: as above
Procedure, shortened: as §1

HS-PSS [19] = experiment: as above
Procedure, shortened: as §1

HS-Sch-2 [20] = experiment: as above
Procedure, shortened: as §1

ST8814 [21] = experiment: as above
Procedure, shortened: as §1

YST-1 [22] = experiment: as above
Procedure, shortened: as §1

STS26T [23] = experiment: as above
Procedure, shortened: as §1

S462 [24] = experiment: as above
Procedure, shortened: as §1

| SMILES | % inhibition [1] [%] | % inhibition (S1507-2 [2]) [%] | % inhibition [3] [%] | % inhibition (HS-PSS [4]) [%] | % inhibition (HS-Sch-2 [5]) [%] | % inhibition (ST8814 [6]) [%] | % inhibition (YST-1 [7]) [%] | % inhibition (STS26T [8]) [%] | % inhibition (S462 [9]) [%] | drug sensitivity score [10] | drug sensitivity score (S1507-2 [11]) | drug sensitivity score [12] | drug sensitivity score (HS-PSS [13]) | drug sensitivity score (ST8814 [14]) | drug sensitivity score (STS26T [15]) | drug sensitivity score [16] | drug sensitivity score (S1507-2 [17]) | drug sensitivity score [18] | drug sensitivity score (HS-PSS [19]) | drug sensitivity score (HS-Sch-2 [20]) | drug sensitivity score (ST8814 [21]) | drug sensitivity score (YST-1 [22]) | drug sensitivity score (STS26T [23]) | drug sensitivity score (S462 [24]) |
| --- | --- | --- | --- | --- | --- | --- | --- | --- | --- | --- | --- | --- | --- | --- | --- | --- | --- | --- | --- | --- | --- | --- | --- | --- |
| Cc1nc(C(=O)NCC(=O)O)c(O)c2ccc(Oc3ccccc3)cc12 [FG-4592] (max concentration tested 10000 nM) | 12.3 | -0.77 ± 1.2 | 13.3 | 49 | 74.7 | 7.03 | -7.68 | 0.0946 | -7 ± 5.2 | 0 | 0 | 0 | 0 | 0 | 0 | 0.0248 | 0 | 0.0901 | 5.17 | 5.13 | 0 | 0 | 0 | 0 |
| COc1ccc(-c2cc3c(C)nc(N)nc3n([C@H]3CC[C@H](OCCO)CC3)c2=O)cn1 (max concentration tested 10000 nM) | 92 | 98.4 ± 1.9 | 92.1 | 70.2 | 97.5 | 99.7 | 101 | 92.3 | 86.96 ± 0.63 | 2.71 | 6.9 ± 1.9 | 2.35 | 0.29 | 6.06 | 4.38 | 16.7 | 22.5 ± 0.84 | 18.3 | 11.7 | 14.9 | 18.8 | 25.6 | 20.5 | 16.6 ± 2 |
| O=C(O)CNC(=O)c1c(O)c2ccccc2n(Cc2ccccc2)c1=O [IOX-2] (max concentration tested 50000 nM) | 20.2 | 26.3 ± 12 | 9.77 | 65 | 89 | 30.5 | 12 | 16.4 | 12.2 ± 1.9 | 0 | 0 | 0 | 0 | 0.888 | 0 | 1.03 | 1.81 ± 1.5 | 0 | 5.08 | 6.06 | 2.35 | 0.01 | 0.326 | 0.3 ± 0.38 |
| C=CC(=O)N1CCC[C@@H](n2nc(-c3ccc(Oc4ccccc4)cc3)c3c(N)ncnc32)C1 [Ibrutinib] (max concentration tested 1000 nM) | -1.15 | -8.72 ± 4.8 | -4.13 | 7.7 | 0.01 | 2.81 | -1.93 | 2.46 | -0.0582 ± 2.1 | 0 | 0 | 0 | 0 | 0 | 0 | 0 | 0 | 0 | 1.17 | 0 | 0 | 0 | 0 | 0 |
| CN(C)c1nc(N(C)C)nc(N(C)C)n1 [Altretamine] (max concentration tested 10000 nM) | -0.459 | -7.42 ± 0.53 | 6.31 | -1.71 | -1.37 | -6.95 | 9.76 | 5.66 | -12.7 ± 1.5 | 0 | 0.0018 ± 0.0026 | 0 | 0 | 0 | 0 | 0 | 0 | 0 | 0 | 0 | 0 | 0 | 0 | 0 |
| COc1cc2/c(=N/c3ccc(Br)cc3F)nc[nH]c2cc1OCC1CCN(C)CC1 [Vandetanib] (max concentration tested 1000 nM) | -4.21 | 28 ± 9.4 | -0.207 | 34.2 | 8.38 | 1.05 | 2.38 | 14.5 | 11.2 ± 6.6 | 0 | 0.78 ± 1.1 | 0 | 0.53 | 0 | 0 | 0 | 1.44 ± 2 | 0 | 4.01 | 0 | 0 | 0 | 0.185 | 0 |
| C[C@]1(O)C[C@@H](c2nc(-c3ccc4ccc(-c5ccccc5)nc4c3)c3c(N)nccn32)C1 [Linsitinib] (max concentration tested 10000 nM) | 11.7 | 24.6 ± 0.99 | 27 | -2.81 | 25.6 | 11.1 | 82.4 | 13 | 30.7 ± 0.84 | 0 | 0.228 ± 0.32 | 0 | 0 | 0 | 0 | 0 | 5.34 ± 1.7 | 5.89 | 0 | 2.13 | 0 | 11.6 | 0.527 | 5.33 ± 1.5 |
| CNC(=O)c1ccc(N2C(=S)N(c3ccc(C#N)c(C(F)(F)F)c3)C(=O)C2(C)C)cc1F [Enzalutamide] (max concentration tested 10000 nM) | -3.12 | 14.2 ± 18 | 14.3 | 7.35 | -3.43 | 11.6 | 4.16 | 3.2 | -3 ± 1.3 | 0 | 2.11 ± 3 | 0 | 0 | 0 | 0 | 0 | 1.03 ± 1.4 | 0.165 | 0 | 0 | 0.0064 | 0 | 0 | 0 |
| COc1cccc2c1C(=O)c1c(O)c3c(c(O)c1C2=O)C[C@@](O)(C(=O)CO)C[C@@H]3O[C@H]1C[C@H](N)[C@H](O)[C@H](C)O1 [Doxorubicin] (max concentration tested 1000 nM) | 99.6 | 83.5 ± 6.7 | 99.1 | 96.1 | 100 | 96.1 | 98.3 | 98.4 | 98.561 ± 0.012 | 18 | 0.0502 ± 0.071 | 0.0904 | 0.81 | 0 | 0.331 | 11.2 | 10.6 ± 1.9 | 11.9 | 7.71 | 10.2 | 9.59 | 13.9 | 12.7 | 13.1 ± 0.35 |
| CC[C@H](Nc1ncnc2[nH]cnc12)c1nc2cccc(F)c2c(=O)n1-c1ccccc1 [Idelalisib] (max concentration tested 10000 nM) | 9.86 | 35.2 ± 8.5 | 14.6 | 2.74 | 3.62 | 21.2 | 46.5 | 49.3 | 19.1 ± 8.8 | 2.82 | 0 | 0 | 0 | 0 | 2.81 | 0 | 7.05 ± 0.49 | 0 | 0 | 0 | 0.546 | 5.3 | 4.47 | 0 |
| O=C(O)c1ccc(-c2c[nH]c3ncc(-c4ccccc4)cc23)cc1C1CCCC1 (max concentration tested 10000 nM) | 18.7 | -2.03 ± 9.5 | 8.07 | 19.2 | 31 | 7.81 | 9.07 | -4.89 | 4.19 ± 1.2 | 0 | 0.00895 ± 0.013 | 0 | 0 | 0 | 0 | 0.756 | 0 | 0 | 0.42 | 1.47 | 0 | 0 | 0 | 0 |
| O=C(c1cc(Cc2n[nH]c(=O)c3ccccc23)ccc1F)N1CCN(C(=O)C2CC2)CC1 [Olaparib] (max concentration tested 10000 nM) | 39.3 | 25.7 ± 8.5 | 38.1 | 23.2 | 32.8 | 41.6 | 69 | 46.3 | 61.15 ± 0.35 | 0.201 | 0.075 ± 0.11 | 0 | 0 | 1.56 | 1.04 | 3.8 | 1.07 ± 0.15 | 3.07 | 1.4 | 2.98 | 1.85 | 10.2 | 3.17 | 4.85 ± 0.63 |
| Nc1nc(NC2CC2)cc(-c2cccc(Cl)c2Cl)n1 [TH588] (max concentration tested 25000 nM) | 67 | 78.2 | 55 | 35.1 | 87.8 | 100 | 79.4 | 102 | 98.2 | 4.06 | 5.61 | 4.29 | 0 | 7.43 | 9.84 | 5.92 | 6.86 | 4.07 | 3.03 | 7.91 | 9.42 | 7.77 | 9.6 | 6.18 |
| COc1ccc(S(=O)(=O)Nc2cccnc2Nc2ccc(O)cc2)cc1 [ABT-751] (max concentration tested 10000 nM) | 86 | 79.7 ± 4.9 | 76.6 | 69 | 87.8 | 86 | 83.1 | 94.9 | 96.52 ± 0.26 | 12.9 | 11.9 ± 0.12 | 7.1 | 0 | 13.5 | 19 | 13.5 | 14 ± 0.54 | 12.3 | 3.98 | 14.3 | 15.1 | 10.8 | 16.3 | 16.8 ± 0.83 |
